# Like-named read-outs stand apart in the source and are kept apart here.
# What was measured:
# mouse μ opioid receptor [1] = biological target: T1, mouse μ opioid receptor (Mus musculus, UniProt P42866); experiment: cell-based; details: for Emax: HEK293, read-out: Max Inhibition
# mouse μ opioid receptor [2] = biological target: T1, mouse μ opioid receptor; experiment: biochemical; type: binding
# T1 sequence (P42866 whole entry): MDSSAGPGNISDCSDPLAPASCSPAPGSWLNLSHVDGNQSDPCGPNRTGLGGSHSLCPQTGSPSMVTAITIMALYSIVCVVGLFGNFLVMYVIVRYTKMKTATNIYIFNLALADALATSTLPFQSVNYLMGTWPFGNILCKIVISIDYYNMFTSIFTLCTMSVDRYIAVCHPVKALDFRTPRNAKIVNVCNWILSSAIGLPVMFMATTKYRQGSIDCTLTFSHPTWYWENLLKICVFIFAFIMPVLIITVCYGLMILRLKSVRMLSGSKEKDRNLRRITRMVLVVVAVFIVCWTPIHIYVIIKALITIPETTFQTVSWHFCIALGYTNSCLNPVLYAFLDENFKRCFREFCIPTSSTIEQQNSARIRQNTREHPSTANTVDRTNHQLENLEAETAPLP
Compound,IC50 (mouse μ opioid receptor [1]) [nM],Emax (mouse μ opioid receptor [1]) [%],Ki (mouse μ opioid receptor [2]) [nM],Max Inhibition (mouse μ opioid receptor [1]),IC50 (mouse μ opioid receptor [1]; read-out: IC50 ± SEM) [nM]
Oc1ccc2c(c1)[C@@]13CCCC[C@@]1(O)[C@@H](C2)N(CC1CCC1)CC3 [Butorphanol],3 ± 2,58 ± 5,,,
C[C@H]1[C@H]2Cc3ccc(O)cc3[C@]1(C)CCN2CC1CC1 [Cyclazocine],21 ± 8,37 ± 2,0.22 ± 0.02,,
C[C@@H](NC(=O)[C@@H](N)Cc1ccc(O)cc1)C(=O)NCC(=O)N(C)[C@@H](Cc1ccccc1)C(=O)NCCO [DAMGO],,,,58 ± 5%,
C[C@@]12CCCCC[C@@H](Cc3ccc(O)cc31)[C@@H]2N [Dezocine],1.3 ± 0.6,43 ± 2,,,
C[C@H]1[C@H]2Cc3ccc(O)cc3[C@]1(C)CCN2C [Metazocine],2 ± 0.1,41 ± 4,,,
C=CCN1CC[C@]23c4c5ccc(O)c4O[C@H]2[C@@H](O)C=C[C@H]3[C@H]1C5 [Nalorphine],2.7 ± 1.4,50 ± 2,,,
C=C1C[C@H](C)[C@H]2[C@H]3Cc4ccc(O)cc4[C@@]2(CCN3CC2CCC2)C1 [Xorphanol],,,,29 ± 2 ⊕⊕^## %,3.4 ± 1.7

# From publication PMC140036 (BMC Pharmacology, 2003)
